Results as given in PubChem BioAssay AID2060887 (Molecular Pharmacology Branch, DTP, NCI, 2025).
Values joined by “and” are separate entries in the source; they are usually repeats but may differ in a detail not shown here. Equal values may be shown once. One block for each compound: values may come before it.

System: 782815-120-R-J1-PDC complex spheroid viability
Assay: Anticancer human tumor 782815-120-R-J1-PDC patient-derived colon adenocarcinoma cell line growth inhibition [RAS]
Settings: for viability, T/C: stronger effect = lower value
Excerpt: RAS pathway inhibitors in Combinations in Complex Spheroids
A high-throughput screen of multi-cell type tumor spheroids was designed to identify active combinations of RAS pathway inhibitors and targeted small molecules. Complex spheroids include a stromal component modeled by human endothelial cells (HUVEC) and fibroblasts modeled by human mesenchymal stem cells (MSCs). The concentration ranges selected for each drug and investigational agent were based upon clinically achievable concentrations if the clinical Cmax of the agent was known.
Compounds. The drugs and investigational agents: abemaciclib (NSC768073), cobimetinib (NSC768068), divarasib (GDC6063, NSC841802), docetaxel (NSC628503), GDC-1971 (RLY-1971, NSC841576), gemcitabine (NSC613327), inavolisib (NSC800729), ipatasertib (NSC767898), KB-0742 (NSC834161), MRTX-1133 (NSC836407), osimertinib (NSC779217), RMC-4630 (NSC839698), RMC-6236 (NSC851965), RMC-6291 (NSC852671), Ro-3306 (NSC812927), sapanisertib (NSC764658), SN-38 (NSC673596), staurosporine (NSC755774), SY5609 (NSC837396), and tovorafenib (DAY101, NSC766906), were obtained from the National Cancer Institute (NCI) Developmental Therapeutics Program Chemical Repository. The FDA-approved anticancer drug set is available from the NCI Developmental Therapeutics Program. […] The stock solutions were prepared in dimethyl sulfoxide (DMSO, Sigma-Aldrich, St. Louis, MO, cat. D2650) at 800-fold the tested concentration and stored at -70 degrees C prior to their use. All drugs and investigational agents were tested over a range starting from a high concentration at or near the clinical Cmax and decreasing in half-log increments. If the clinical Cmax for an agent had not been determined, the highest concentration tested was 10 microM.
Cell Culture. All cells were maintained in an incubator at 37 degrees C and 5% CO2 with 95% humidity. The PDC lines were cultured according to standard operating procedures established by the NCI PDMR. All PDCs were thawed and cultured in Matrigel-coated flasks prepared with a working solution of 1X Ham's F-12 nutrient mix, without supplementation (Invitrogen, Waltham, MA, cat. 11765054), 100 U/mL penicillin-streptomycin (Invitrogen, cat. 15140122), and 2.5% Matrigel (Corning Inc., Corning, NY, cat. 354248) for the first three passages. The 362531-283-R-J2-PDC and 782815-120-R-J1-PDC lines were cultured in 6C/Colon 1B media, which includes advanced DMEM/F-12 (Thermo Fisher Scientific, cat. 12634028), 10 mM HEPES (Thermo Fisher Scientific, cat. 15630080), 1X GlutaMAX supplement (Thermo Fisher Scientific, cat. 35050061), 0.1 mg/mL primocin (InvivoGen, San Diego, CA, cat. ant-pm-2), 10% defined fetal bovine serum, heat inactivated (HyClone Laboratories Inc., Logan, UT, cat. SH30070.03HI), 50% L-WRN conditioned media (ATCC, cat. CRL-3276), 1.25 mM N-Acetyl-L-cysteine (Sigma-Aldrich, cat. A9165), 10 mM nicotinamide (Sigma-Aldrich, cat. N0636), 1X B-27 supplement (Thermo Fisher Scientific, cat. 17504044), 1X N-2 supplement (Thermo Fisher Scientific, cat. 17502048), 50 ng/mL human EGF (Thermo Fisher Scientific, cat. PHG0311), and 10 microM Y-27632 dihydrochloride (Tocris Bioscience, cat. 1254). The K12877-001-R-J1-PDC line was cultured in 6I media, which includes all 6C/Colon 1B media plus 10 ng/mL human FGF-10 (PeproTech, cat. 100-26), 1 ng/mL human FGF-2 (PeproTech, cat. 100-18B), 1 µM prostaglandin E2 (Tocris Bioscience, cat. 2296), […] hydrocortisone (Sigma-Aldrich, cat. H4001), and […] bovine insulin (Sigma-Aldrich, cat. I6634). The K86415-001-R-J1-PDC line was cultured in 6D media, which includes all 6C/Colon 1B media components minus the L-WRN conditioned media. The 485176-168-R4-J1-PDC was cultured in PANC media, which includes all 6C/Colon 1B media plus 100 ng/mL human FGF-10 (PeproTech, cat. 100-26), 500 nM SB-431542 (Selleckchem, cat. S1067), and 10 nM gastrin (Tocris Bioscience, cat. 3006). […]

[1] = curve of first compound, second compound 0.0316 µM
[2] = curve of first compound, second compound 0.1 µM
[3] = curve of first compound, second compound 0.316 µM
[4] = curve of first compound, second compound 1 µM
[5] = curve of first compound, second compound 3.16 µM
[6] = curve of first compound, second compound 10 µM
[7] = second compound 0.0316 µM, first compound 0.00316 µM
[8] = second compound 0.0316 µM, first compound 0.01 µM
[9] = second compound 0.0316 µM, first compound 0.0316 µM
[10] = second compound 0.0316 µM, first compound 0.1 µM
[11] = second compound 0.0316 µM, first compound 0.316 µM
[12] = second compound 0.0316 µM, first compound 1 µM
[13] = second compound 0.1 µM, first compound 0.00316 µM
[14] = second compound 0.1 µM, first compound 0.01 µM
[15] = second compound 0.1 µM, first compound 0.0316 µM
[16] = second compound 0.1 µM, first compound 0.1 µM
[17] = second compound 0.1 µM, first compound 0.316 µM
[18] = second compound 0.1 µM, first compound 1 µM
[19] = second compound 0.316 µM, first compound 0.00316 µM
[20] = second compound 0.316 µM, first compound 0.01 µM
[21] = second compound 0.316 µM, first compound 0.0316 µM
[22] = second compound 0.316 µM, first compound 0.1 µM
[23] = second compound 0.316 µM, first compound 0.316 µM
[24] = second compound 0.316 µM, first compound 1 µM
[25] = second compound 1 µM, first compound 0.00316 µM
[26] = second compound 1 µM, first compound 0.01 µM
[27] = second compound 1 µM, first compound 0.0316 µM
[28] = second compound 1 µM, first compound 0.1 µM
[29] = second compound 1 µM, first compound 0.316 µM
[30] = second compound 1 µM, first compound 1 µM
[31] = second compound 3.16 µM, first compound 0.00316 µM
[32] = second compound 3.16 µM, first compound 0.01 µM
[33] = second compound 3.16 µM, first compound 0.0316 µM
[34] = second compound 3.16 µM, first compound 0.1 µM
[35] = second compound 3.16 µM, first compound 0.316 µM
[36] = second compound 3.16 µM, first compound 1 µM
[37] = second compound 10 µM, first compound 0.00316 µM
[38] = second compound 10 µM, first compound 0.01 µM
[39] = second compound 10 µM, first compound 0.0316 µM
[40] = second compound 10 µM, first compound 0.1 µM
[41] = second compound 10 µM, first compound 0.316 µM
[42] = second compound 10 µM, first compound 1 µM
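Also: spheroids exposed to compounds for 7 days before reading.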
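For viability, T/C in this document: 100% = DMSO vehicle control viability.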

SMILES: CC(=O)OC12COC1CC(O)C1(C)C(=O)C(O)C3=C(C)C(OC(=O)C(O)C(NC(=O)OC(C)(C)C)c4ccccc4)CC(O)(C(OC(=O)c4ccccc4)C21)C3(C)C (stereo not given)
viability, T/C (compound 0.0316 µM): 35% [middle of 4 runs]
viability, T/C (compound 0.1 µM): 33.6% [middle of 4 runs]
viability, T/C (compound 0.316 µM): 25.9% [middle of 4 runs]
viability, T/C (compound 1 µM): 27.1% [middle of 4 runs]
viability, T/C (compound 3.16 µM): 27.9% [middle of 4 runs]
viability, T/C (compound 10 µM): 33.1% [middle of 4 runs]
IC50 (curve of compound): < 31.6 nM

SMILES: C=CC(=O)Nc1cc(Nc2nccc(-c3cn(C)c4ccccc34)n2)c(OC)cc1N(C)CCN(C)C + C#Cc1c(F)ccc2cc(O)cc(-c3ncc4c(N5CC6CCC(C5)N6)nc(OCC56CCCN5CC(F)C6)nc4c3F)c12
IC50 [1]: > 1000 nM
IC50 [2]: > 1000 nM
IC50 [3]: > 1000 nM
IC50 [4]: > 1000 nM
IC50 [5]: > 1000 nM
IC50 [6]: > 1000 nM
viability, T/C [7]: 99.3%
viability, T/C [8]: 93.8%
viability, T/C [9]: 101%
viability, T/C [10]: 97.2%
viability, T/C [11]: 98.9%
viability, T/C [12]: 93.6%
viability, T/C [13]: 103%
viability, T/C [14]: 97.2%
viability, T/C [15]: 97.5%
viability, T/C [16]: 93.6%
viability, T/C [17]: 101%
viability, T/C [18]: 89.5%
viability, T/C [19]: 98.2%
viability, T/C [20]: 94.3%
viability, T/C [21]: 105%
viability, T/C [22]: 89%
viability, T/C [23]: 95%
viability, T/C [24]: 101%
viability, T/C [25]: 95.5%
viability, T/C [26]: 96%
viability, T/C [27]: 101%
viability, T/C [28]: 92.4%
viability, T/C [29]: 100%
viability, T/C [30]: 101%
viability, T/C [31]: 99.9%
viability, T/C [32]: 101%
viability, T/C [33]: 98.4%
viability, T/C [34]: 94.4%
viability, T/C [35]: 97%
viability, T/C [36]: 95.8%
viability, T/C [37]: 100%
viability, T/C [38]: 91.7%
viability, T/C [39]: 110%
viability, T/C [40]: 101%
viability, T/C [41]: 94.4%
viability, T/C [42]: 91.7%

SMILES: O=C(c1ccc(F)c(F)c1Nc1ccc(I)cc1F)N1CC(O)([C@@H]2CCCCN2)C1 + C#Cc1c(F)ccc2cc(O)cc(-c3ncc4c(N5CC6CCC(C5)N6)nc(OCC56CCCN5CC(F)C6)nc4c3F)c12
IC50 [1]: 84.7 nM
IC50 [2]: 57 nM
IC50 [3]: 65.9 nM
IC50 [4]: 79 nM
IC50 [5]: 54.3 nM
IC50 [6]: 58.3 nM
viability, T/C [7]: 95.6%
viability, T/C [8]: 95%
viability, T/C [9]: 66%
viability, T/C [10]: 47.1%
viability, T/C [11]: 23.6%
viability, T/C [12]: 3.7%
viability, T/C [13]: 97.4%
viability, T/C [14]: 81%
viability, T/C [15]: 61.5%
viability, T/C [16]: 38.6%
viability, T/C [17]: 20.8%
viability, T/C [18]: 4.18%
viability, T/C [19]: 98.7%
viability, T/C [20]: 88.4%
viability, T/C [21]: 63.1%
viability, T/C [22]: 42.2%
viability, T/C [23]: 19.1%
viability, T/C [24]: 2.93%
viability, T/C [25]: 97.8%
viability, T/C [26]: 85.4%
viability, T/C [27]: 69.7%
viability, T/C [28]: 46.5%
viability, T/C [29]: 18.1%
viability, T/C [30]: 1.87%
viability, T/C [31]: 99.4%
viability, T/C [32]: 85.9%
viability, T/C [33]: 59.1%
viability, T/C [34]: 40.7%
viability, T/C [35]: 10.4%
viability, T/C [36]: 0.92%
viability, T/C [37]: 98.4%
viability, T/C [38]: 88.3%
viability, T/C [39]: 61.4%
viability, T/C [40]: 41.2%
viability, T/C [41]: 10.1%
viability, T/C [42]: 0.5%

More lines, main results first:

IC50 (curve of compound): > 10000 nM
SMILES: Cc1nc(N2CCC3(CC2)COC(C)C3N)c(CO)nc1Sc1ccnc(N)c1Cl (stereo not given)
viability, T/C (compound 0.0316 µM): 96.6% [middle of 4 runs]
viability, T/C (compound 0.1 µM): 99.8% [middle of 4 runs]
viability, T/C (compound 0.316 µM): 93.7% [middle of 4 runs]
viability, T/C (compound 1 µM): 94.7% [middle of 4 runs]
viability, T/C (compound 3.16 µM): 98.3% [middle of 4 runs]
viability, T/C (compound 10 µM): 104% [middle of 4 runs]

IC50 (curve of compound): > 10000 nM
SMILES: NC1c2ccccc2OC12CCN(c1cnc3c(N4CCCc5ncccc54)n[nH]c3n1)CC2 (stereo not given)
viability, T/C (compound 0.0316 µM): 99% [middle of 4 runs]
viability, T/C (compound 0.1 µM): 96.6% [middle of 4 runs]
viability, T/C (compound 0.316 µM): 104% [middle of 4 runs]
viability, T/C (compound 1 µM): 95% [middle of 4 runs]
viability, T/C (compound 3.16 µM): 102% and 94.6% and 99.8% (2×)
viability, T/C (compound 10 µM): 86.9% [middle of 4 runs]
